These compounds were tested on HCV 1b-377-neo replicon cells (assay: HCV replicon FRET assay). Conditions: Hepatitis C virus; HCV replicon; read-out: Activity (EC50).
Type: cell-based

| Compound | EC50 [nM] |
| --- | --- |
| COC(=O)N1c2ccccc2C[C@H]1C(=O)N1CCC[C@H]1C(=O)Nc1ccc(/C=C/c2ccc(NC(=O)[C@@H]3CCCN3C(=O)[C@@H]3Cc4ccccc4N3C(=O)OC)cc2)cc1 [Example 189] | 1000 to 10000 |
| O=C(Nc1ccc(/C=C/c2ccc(NC(=O)[C@@H]3CCCN3C(=O)C3CCC3)cc2)cc1)[C@@H]1CCCN1C(=O)c1ccccn1 [Example 85] | 0.1 to 90 |
| CCCOc1ccccc1C(=O)N1CCC[C@H]1C(=O)Nc1ccc(/C=C/c2ccc(NC(=O)[C@@H]3CCCN3C(=O)c3ccccc3OCCC)cc2)cc1 [Example 134] | 1000 to 10000 |
| Cc1ncccc1C(=O)N1CCC[C@H]1C(=O)Nc1ccc(/C=C/c2ccc(NC(=O)[C@@H]3CCCN3C(=O)c3cccnc3C)cc2)cc1 [Example 76] | 100 to 1000 |
| CN(C)[C@@H](C(=O)N1CCC[C@H]1C(=O)Nc1ccc(/C=C/c2ccc(NC(=O)[C@@H]3CCCN3C(=O)[C@@H](c3ccccc3)N(C)C)cc2)cc1)c1ccccc1 [Example 296] | 0.1 to 90 |
| O=C(Nc1ccc(/C=C/c2ccc(NC(=O)[C@@H]3Cc4ccccc4CN3C(=O)OCc3ccccc3)cc2)cc1)[C@@H]1Cc2ccccc2CN1C(=O)OCc1ccccc1 [Example 10] | 1000 to 10000 |
| O=C(Nc1ccc(/C=C/c2ccc(NC(=O)[C@@H]3CCCN3C(=O)c3nc4ccccc4[nH]3)cc2)cc1)[C@@H]1CCCN1C(=O)c1nc2ccccc2[nH]1 [Example 180] | 1000 to 10000 |
| CC(=O)N[C@@H](C)C(=O)Nc1ccc(/C=C/c2ccc(NC(=O)[C@@H]3CCCN3C(=O)Cc3ccccc3)cc2)cc1 [Example 256] | 100 to 1000 |
| CNc1ccccc1C(=O)N1CCC[C@H]1C(=O)Nc1ccc(/C=C/c2ccc(NC(=O)[C@@H]3CCCN3C(=O)c3ccccc3NC)cc2)cc1 [Example 140] | 100 to 1000 |
| CC(C)NC(=O)O[C@@H]1C[C@@H](C(=O)Nc2ccc(/C=C/c3ccc(NC(=O)[C@@H]4C[C@@H](O)CN4C(=O)OCc4ccccc4)cc3)cc2)N(C(=O)OCc2ccccc2)C1 [Example 246] | 1000 to 10000 |
| CC(C)N(C(=O)N1CCCC1C(=O)Nc1ccc(/C=C/c2ccc(NC(=O)C3CCCN3C(=O)N(C(C)C)C(C)C)cc2)cc1)C(C)C (stereo not drawn) [Example 284] | 0.1 to 90 |
| O=C(Nc1ccc(/C=C/c2ccc(NC(=O)[C@@H]3C=CCN3C(=O)Cc3ccncc3)cc2)cc1)[C@@H]1C=CCN1C(=O)Cc1ccncc1 [Example 221] | 100 to 1000 |
| O=C(Nc1ccc(/C=C/c2ccc(NC(=O)[C@@H]3CCCCN3C(=O)OCc3ccccc3)cc2)cc1)[C@@H]1CCCCN1C(=O)OCc1ccccc1 [Example 9] | 0.1 to 90 |
| CO[C@@H]1C[C@@H](C(=O)Nc2ccc(/C=C/c3ccc(NC(=O)[C@@H]4C[C@H](OC)CN4C(=O)OCc4ccccc4)cc3)cc2)N(C(=O)OCc2ccccc2)C1 [Example 15] | 0.1 to 90 |
| O=C(Nc1ccc(/C=C/c2ccc(NC(=O)[C@@H]3CCCN3C(=O)C3Cc4ccccc43)cc2)cc1)[C@@H]1CCCN1C(=O)C1Cc2ccccc21 (stereo partly drawn) [Example 116] | 1000 to 10000 |
| O=C(Nc1ccc(/C=C/c2ccc(NC(=O)[C@@H]3C=CCN3C(=O)Cc3cccnc3)cc2)cc1)[C@@H]1C=CCN1C(=O)Cc1cccnc1 [Example 218] | 0.1 to 90 |
| O=C(Cc1ccccc1)C1C[C@H](O)C[C@H]1C(=O)Nc1ccc(/C=C/c2ccc(NC(=O)[C@@H]3C[C@@H](O)CN3C(=O)Cc3ccccc3)cc2)cc1 (stereo partly drawn) [Example 291] | 0.1 to 90 |
| O=C(Nc1ccc(/C=C/c2ccc(NC(=O)[C@@H]3CCCN3C(=O)c3ccccc3OCc3ccccc3)cc2)cc1)[C@@H]1CCCN1C(=O)c1ccccc1OCc1ccccc1 [Example 148] | 1000 to 10000 |
| O=C(Nc1ccc(/C=C/c2ccc(NC(=O)[C@@H]3CCCN3C(=O)Cc3cccc4ccccc34)cc2)cc1)[C@@H]1CCCN1C(=O)Cc1cccc2ccccc12 [Example 181] | 100 to 1000 |
| O=C(Nc1ccc(/C=C/c2ccc(NC(=O)[C@@H]3CCCN3C(=O)Cc3ccccc3)c(F)c2)cc1F)[C@@H]1CCCN1C(=O)Cc1ccccc1 [Example 276] | 0.1 to 90 |
| O=C(Nc1ccc(/C=C/c2ccc(NC(=O)[C@@H]3CCCN3C(=O)C3CC(=O)N(Cc4cccs4)C3)cc2)cc1)[C@@H]1CCCN1C(=O)C1CC(=O)N(Cc2cccs2)C1 (stereo partly drawn) [Example 154] | 1000 to 10000 |
| CCc1ccccc1C(=O)Nc1ccc(/C=C/c2ccc(NC(=O)[C@@H]3CCCN3C(=O)Cc3ccccc3)cc2)cc1 [Example 265] | 100 to 1000 |
| COCC(=O)N1CCC[C@H]1C(=O)Nc1ccc(/C=C/c2ccc(NC(=O)[C@@H]3CCCN3C(=O)c3ccc(N(C)C)cc3)cc2)cc1 [Example 91] | 100 to 1000 |
| CC(=O)N1CCC[C@H]1C(=O)Nc1ccc(/C=C/c2ccc(NC(=O)[C@@H]3CCCN3C(=O)Cc3cccnc3)cc2)cc1 [Example 50] | 0.1 to 90 |
| COc1cccc(C(=O)N2CCC[C@H]2C(=O)Nc2ccc(/C=C/c3ccc(NC(=O)[C@@H]4CCCN4C(=O)c4cccc(OC)c4OC)cc3)cc2)c1OC [Example 146] | 1000 to 10000 |
| COc1cccc(CC(=O)N2CCC[C@H]2C(=O)Nc2ccc(/C=C/c3ccc(NC(=O)[C@@H]4CCCN4C(=O)Cc4cccc(OC)c4)cc3)cc2)c1 [Example 25] | 100 to 1000 |
| CN(C)CC(=O)N1CCC[C@H]1C(=O)Nc1ccc(/C=C/c2ccc(NC(=O)[C@@H]3CCCN3C(=O)Cc3cccs3)cc2)cc1 [Example 101] | 0.1 to 90 |

| Compound | EC50 [nM] |
| --- | --- |
| CCCc1c(C(=O)N2CCC[C@H]2C(=O)Nc2ccc(/C=C/c3ccc(NC(=O)[C@@H]4CCCN4C(=O)c4cnn(-c5ccccc5)c4CCC)cc3)cc2)cnn1-c1ccccc1 [Example 175] | 1000 to 10000 |
| O=C(Nc1ccc(/C=C/c2ccc(NC(=O)[C@@H]3CCCN3C(=O)c3cnccn3)cc2)cc1)[C@@H]1CCCN1C(=O)c1cnccn1 [Example 178] | 1000 to 10000 |
| O=C(Nc1ccc(/C=C/c2ccc(NC(=O)[C@@H]3CCCN3C(=O)c3ccco3)cc2)cc1)[C@@H]1CCCN1C(=O)c1ccco1 [Example 67] | 100 to 1000 |
| CCCOc1cccnc1C(=O)N1CCC[C@H]1C(=O)Nc1ccc(/C=C/c2ccc(NC(=O)[C@@H]3CCCN3C(=O)c3ncccc3OCCC)cc2)cc1 [Example 159] | 1000 to 10000 |
| CCc1cccc(C)c1C(=O)N1CCC[C@H]1C(=O)Nc1ccc(/C=C/c2ccc(NC(=O)[C@@H]3CCCN3C(=O)c3c(C)cccc3CC)cc2)cc1 [Example 206] | 1000 to 10000 |
| Cc1ccccc1C(=O)N1CCC[C@H]1C(=O)Nc1ccc(/C=C/c2ccc(NC(=O)[C@@H]3CCCN3C(=O)c3ccccc3C)cc2)cc1 [Example 125] | 100 to 1000 |
| CCC(=O)N1CCC[C@H]1C(=O)Nc1ccc(/C=C/c2ccc(NC(=O)[C@@H]3CCCN3C(=O)Cc3cccs3)cc2)cc1 [Example 103] | 0.1 to 90 |
| O=C(Nc1ccc(/C=C/c2ccc(NC(=O)[C@@H]3CCCN3S(=O)(=O)Cc3cccc(C(F)(F)F)c3)cc2)cc1)[C@@H]1CCCN1S(=O)(=O)Cc1cccc(C(F)(F)F)c1 [Example 283] | 1000 to 10000 |
| CN(C)c1ccccc1C(=O)N1CCC[C@H]1C(=O)Nc1ccc(/C=C/c2ccc(NC(=O)[C@@H]3CCCN3C(=O)c3ccccc3N(C)C)cc2)cc1 [Example 144] | 1000 to 10000 |
| CN(C)c1cc(C(=O)N2CCC[C@H]2C(=O)Nc2ccc(/C=C/c3ccc(NC(=O)[C@@H]4CCCN4C(=O)c4cc(N(C)C)c5ccccc5n4)cc3)cc2)nc2ccccc12 [Example 297] | 0.1 to 90 |
| CC(C)(C)O[C@@H]1C[C@@H](C(=O)Nc2ccc(/C=C/c3ccc(NC(=O)C4CC4)cc3)cc2)N(C(=O)OCc2ccccc2)C1 [Example 259] | 100 to 1000 |
| Cn1cncc1C(=O)N1CCC[C@H]1C(=O)Nc1ccc(/C=C/c2ccc(NC(=O)[C@@H]3CCCN3C(=O)c3cncn3C)cc2)cc1 [Example 211] | 0.1 to 90 |
| O=C(Nc1ccc(/C=C/c2ccc(NC(=O)[C@@H]3CCCN3C(=O)c3ccno3)cc2)cc1)[C@@H]1CCCN1C(=O)c1ccno1 [Example 79] | 0.1 to 90 |
| CCOc1cccc(-c2cccnc2C(=O)N2CCC[C@H]2C(=O)Nc2ccc(/C=C/c3ccc(NC(=O)[C@@H]4CCCN4C(=O)c4ncccc4-c4cccc(OCC)c4)cc3)cc2)c1 [Example 231] | 1000 to 10000 |
| CC(C)N(C(=O)N1CCC[C@H]1C(=O)Nc1ccc(/C=C/c2ccc(NC(=O)[C@@H]3CCCN3C(=O)N(C(C)C)C(C)C)cc2)cc1)C(C)C [Example 290] | 0.1 to 90 |
| O=C(Nc1ccc(/C=C/c2ccc(NC(=O)[C@@H]3CCCN3C(=O)c3c[nH]cn3)cc2)cc1)[C@@H]1CCCN1C(=O)c1c[nH]cn1 [Example 210] | 1000 to 10000 |
| Cn1cccc1C(=O)N1CCC[C@H]1C(=O)Nc1ccc(/C=C/c2ccc(NC(=O)[C@@H]3CCCN3C(=O)c3cccn3C)cc2)cc1 [Example 121] | 0.1 to 90 |
| COCC(=O)N1CCC[C@H]1C(=O)Nc1ccc(/C=C/c2ccc(NC(=O)[C@@H]3CCCN3C(=O)Cc3cc(C)no3)cc2)cc1 [Example 95] | 0.1 to 90 |
| COc1ccc(C)cc1C(=O)N1CCC[C@H]1C(=O)Nc1ccc(/C=C/c2ccc(NC(=O)[C@@H]3CCCN3C(=O)c3cc(C)ccc3OC)cc2)cc1 [Example 139] | 100 to 1000 |
| O=C(Nc1ccc(/C=C/c2ccc(NC(=O)C3CC(=O)N(Cc4cccs4)C3)cc2)cc1)C1CC(=O)N(Cc2cccs2)C1 (stereo not drawn) [Example 13] | 1000 to 10000 |
| O=C(Nc1ccc(/C=C/c2ccc(NC(=O)[C@@H]3CCCN3C(=O)c3ccccc3CCc3ccccc3)cc2)cc1)[C@@H]1CCCN1C(=O)c1ccccc1CCc1ccccc1 [Example 169] | 100 to 1000 |
| CC(C)C(=O)N1CCC[C@H]1C(=O)Nc1ccc(/C=C/c2ccc(NC(=O)[C@@H]3CCCN3C(=O)Cc3cccs3)cc2)cc1 [Example 102] | 0.1 to 90 |
| O=C(Nc1ccc(/C=C/c2ccc(NC(=O)[C@@H]3C=CCN3C(=O)Cc3ccccn3)cc2)cc1)[C@@H]1C=CCN1C(=O)Cc1ccccn1 [Example 215] | 0.1 to 90 |
| CN(C)[C@H]1C[C@@H](C(=O)Nc2ccc(/C=C/c3ccc(NC(=O)[C@@H]4C[C@H](N(C)C)CN4C(=O)Cc4ccccc4)cc3)cc2)N(C(=O)Cc2ccccc2)C1 [Example 225] | 0.1 to 90 |
| CSCC(=O)N1CCC[C@H]1C(=O)Nc1ccc(/C=C/c2ccc(NC(=O)[C@@H]3CCCN3C(=O)CSC)cc2)cc1 [Example 81] | 0.1 to 90 |
| Cc1cc(/C=C/c2ccc(NC(=O)[C@@H]3CCCN3C(=O)Cc3ccccc3)c(C)c2)ccc1NC(=O)[C@@H]1CCCN1C(=O)Cc1ccccc1 [Example 277] | 0.1 to 90 |
| CC(=O)N1C[C@H](OC(C)(C)C)C[C@H]1C(=O)Nc1ccc(/C=C/c2ccc(NC(=O)[C@@H]3C[C@@H](OC(C)(C)C)CN3C(=O)Cc3cccnc3)cc2)cc1 [Example 132] | 100 to 1000 |
